Counter-ions that a name gives are not always drawn.
What was measured:
[1] = system: uterus of ovariectomized rats; assay: Uterine weight in ovariectomized rats; format: in vivo, female Sprague Dawley rats; conditions: for Uterine Weight % Inc (increase versus the ovariectomized controls): daily for 4 days, 5 to 6 rats, * p < .05
Text: (§1) Seventy-five day old female Sprague Dawley rats (weight range of 200 to 225 g) were obtained from Charles River Laboratories (Portage, Mich.). The animals were either bilaterally ovariectomized (OVX) or exposed to a Sham surgical procedure at Charles River Laboratories, and then shipped after one week. Upon arrival, they were housed in metal hanging cages in groups of 3 or 4 per cage and had ad libitum access to food (calcium content approximately 0.5%) and water for one week. Room temperature was maintained at 22.2°±1.7° C. with a minimum relative humidity of 40%. The photoperiod in the room was 12 hours light and 12 hours dark.
(§2) Dosing Regimen Tissue Collection. After a one week acclimation period (therefore, two weeks post-OVX) daily dosing with test compound was initiated. 17α-ethynyl estradiol or the test compound were given orally, unless otherwise stated, as a suspension in 1% carboxymethylcellulose or dissolved in 20% cyclodextrin. Animals were dosed daily for 4 days. Following the dosing regimen, animals were weighed and anesthetized with a ketamine:xylazine (2:1, V:V) mixture and a blood sample was collected by cardiac puncture. The animals were then sacrificed by asphyxiation with CO2, the uterus was removed through a midline incision, and a wet uterine weight was determined.
(§3) The data presented in Table 1 below reflects the response of 5 to 6 rats per treatment.

[2] = system: Uterine Eosinophil Peroxidase; assay: Uterine Eosinophil Peroxidase (EPO) Assay; format: in vivo, female Sprague Dawley rats; conditions: for Uterine Eosinophil (Vmax), Eosinophil peroxidase Vmax: daily for 4 days, 5 to 6 rats, * p < .05
Text: as §1, §2
Uterine Eosinophil Peroxidase (EPO) Assay. Uteri were kept at 4° C. until time of enzymatic analysis. The uteri were then homogenized in 50 volumes of 50 mM Tris buffer (pH-8.0) containing 0.005% Triton X-100. Upon addition of 0.01% hydrogen peroxide and 10 mM O-phenylenediamine (final concentrations) in Tris buffer, increase in absorbance was monitored for one minute at 450 nm. The presence of eosonophils in the uterus is an indication of estrogenic activity of a compound. The maximal velocity of a 15 second interval was determined over the initial, linear portion of the reaction curve.
as §3

Serum cholesterol = Serum cholesterol analysis in ovariectomized rats; format: in vivo, female Sprague Dawley rats; conditions: for Serum Cholest. % Dec. (decrease versus ovariectomized controls): daily for 4 days, 5 to 6 rats, * p < .05
Text: as §1, §2
Cholesterol Analysis. Blood samples were allowed to clot at room temperature for 2 hours, and serum was obtained following centrifugation for 10 minutes at 3000 rpm. Serum cholesterol was determined using a Boehringer Mannheim Diagnostics high performance cholesterol assay. Briefly the cholesterol was oxidized to cholest-4-en-3-one and hydrogen peroxide. The hydrogen peroxide was then reacted with phenol and 4-aminophenazone in the presence of peroxidase to produce a p-quinone imine dye, which was read spectrophotemetrically at 500 nm. Cholesterol concentration was then calculated against a standard curve.
as §3

[3] = system: femur density of ovariectomized rats; assay: Osteoporosis test, bone density in ovariectomized rats; format: in vivo; conditions: orally administered, 35 days, in 20% hydroxypropyl β-cyclodextrin
Procedure: Following the General Preparation Procedure, infra, the rats are treated daily for 35 days (6 rats per treatment group) and sacrificed by carbon dioxide asphyxiation on the 36th day. The 35 day time period is sufficient to allow maximal reduction in bone density, measured as described herein. At the time of sacrifice, the uteri are removed, dissected free of extraneous tissue, and the fluid contents are expelled before determination of wet weight in order to confirm estrogen deficiency associated with complete ovariectomy. […] The uteri are then placed in 10% neutral buffered formalin to allow for subsequent histological analysis. The right femurs are excised and digitilized x-rays generated and analyzed by an image analysis program (NIH image) at the distal metaphysis. The proximal aspect of the tibiae from these animals are also scanned by quantitative computed tomography. In accordance with the above procedures, compounds of the instant invention and ethynyl estradiol (EE2) in 20% hydroxypropyl β-cyclodextrin are orally administered to test animals. Distal femur metaphysis and proximal tibiae data are compared to intact and ovariectomized test animals. Results are reported as percent protection relative to ovariectomy.

[4] = system: MCF-7 breast adenocarcinoma cells; assay: MCF-7 Proliferation Assay (estrogen dependent breast cancer); format: cell-based; conditions: Homo sapiens, MCF7, versus control (DMSO), tritiated thymidine
Procedure: MCF-7 breast adenocarcinoma cells (ATCC HTB 22) are maintained in MEM (minimal essential medium, phenol-red free, Sigma St.Louis Mo.) supplimented with 10% fetal bovine serum (FBS) (v/v), L-glutamine (2 mM), sodium pyruvate (1 mM), HEPES (10 mM), non-essential amino acids and bovine insulin (1 ug/mL). Ten days prior to the assay, the MCF-7 cells are switched to maintenance medium supplemented with 10% dextrancoated charcoal stripped fetal bovine serum (DCC-FBS) assay medium in place of the 10% FBS to deplete internal stores of estrogen. MCF-7 cells are removed from the maintenance flasks using a cell dissociating medium (Ca/Mg free HBSS (phenol-red free) supplemented with 10 mM HEPES and 2 mM EDTA. Cells are washed twice with the assay medium and adjusted to 80,000 cells/mL. Approximately […] (8,000 cells) are added to a flat-bottomed microculture well (Costar 3596) and incubated at […] in a 5% CO2 humidified incubator for 48 hours to allow cell adherence and equilibrium after transfer. Serial dilutions of the compounds of formula I or DMSO as a diluent control are prepared in assay medium and […] to triplicate microcultures followed by […] for a final volume of […]. After an additional 48 hours of incubation, the microcultures are pulsed with tritiated thymidine ([…]) for 4 hours. Culture are terminated by freezing at -70° C. for 24 hours followed by thawing and harvesting of microcultures using a Skatron Semiautomatic Cell Harvester. Samples are counted by liquid scintillation. Fifty percent inhibitory concentration of the test drugs (IC50) are determined versus the control (DMSO).

SMILES	Uterine Weight % Inc (increase versus the ovariectomized controls) ([1]; 0.1 mg/kg PO) [%]	Uterine Weight % Inc (increase versus the ovariectomized controls) ([1]; 1.0 mg/kg PO) [%]	Uterine Weight % Inc (increase versus the ovariectomized controls) ([1]; 10.0 mg/kg PO) [%]	Uterine Eosinophil (Vmax), Eosinophil peroxidase Vmax ([2]; 0.1 mg/kg PO)	Uterine Eosinophil (Vmax), Eosinophil peroxidase Vmax ([2]; 1.0 mg/kg PO)	Uterine Eosinophil (Vmax), Eosinophil peroxidase Vmax ([2]; 10.0 mg/kg PO)	Serum Cholest. % Dec. (decrease versus ovariectomized controls) (Serum cholesterol; 0.1 mg/kg PO) [%]	Serum Cholest. % Dec. (decrease versus ovariectomized controls) (Serum cholesterol; 1.0 mg/kg PO) [%]	Serum Cholest. % Dec. (decrease versus ovariectomized controls) (Serum cholesterol; 10.0 mg/kg PO) [%]	uterine weight (in words) ([1]; EE2 orally at 0.1 mg/kg/day, versus ovariectomized test animals)	eosinophil infiltration into the uterus (in words) ([2]; stromal layer of ovariectomized rats)	serum cholesterol (in words) (Serum cholesterol; EE2 orally at 0.1 mg/kg/day)	loss of femur density after ovariectomy [3]	IC50 [4] [nM]
Oc1ccc(-c2sc3cc(O)ccc3c2-c2ccc(OCCN3CCCCC3)cc2)cc1 [Compound A, reference compound]	24.6	64.8	41.7	21.0	49.9	55.9	45.4	68.8	65.3	–	–	–	–	–
C#C[C@]1(O)CC[C@H]2[C@@H]3CCc4cc(O)ccc4[C@H]3CC[C@@]21C [EE2, 17α-ethynyl estradiol, reference compound]	118.6	–	–	234.2	–	–	89.3	–	–	substantially greater than the uterine weight of ovariectomized test animals	substantial, expected increase in eosinophil infiltration	caused a decrease in serum cholesterol	prevents this loss	–
COc1ccc(-c2sc3cc(OC)ccc3c2-c2cccc(OCCN3CCCCC3)c2)cc1.Cl [Example 1, 2-(4-Methoxyphenyl)-3-[3-[2-(1-piperidinyl)ethoxy]phenyl]-6-methoxybenzo[b]thiophene hydrochloride]	24	37.2	68.2	7.5	22.2	103.5	25.8	56.1	71.1	–	–	–	–	–
COc1ccc(-c2sc3cc(OC)ccc3c2-c2cccc(OCCCN3CCCCC3)c2)cc1.Cl [Example 2, 2-(4-Methoxyphenyl)-3-[3-[3-(1-piperidinyl)propoxy]phenyl]-6-methoxybenzo[b]thiophene hydrochloride]	20.2	35.7	39.1	24.0	32.4	32.1	59.1	76.5	69.4	–	–	–	–	–
COc1ccc(-c2sc3cc(OC)ccc3c2-c2cccc(OCCCCN3CCCCC3)c2)cc1.Cl [Example 3, 2-(4-Methoxyphenyl)-3-[3-[4-(1-piperidinyl)butoxy]phenyl]-6-methoxybenzo[b]thiophene hydrochloride]	23.9	62.1	65.0	4.8	43.5	-91.2	35.5	64.4	78.0	–	–	–	–	–
Oc1ccc(-c2sc3cc(O)ccc3c2-c2cccc(OCCN3CCCCC3)c2)cc1 [Example 4, 2-(4--Hydroxyphenyl)-3-[3-[2-(1-piperidinyl)ethoxy]phenyl]-6-hydroxybenzo[b]thiophene hydrochloride]	9.1	5.6	78.7	4.8	4.8	103.8	33.3	57.2	81.0	–	–	–	–	8
Oc1ccc(-c2sc3cc(O)ccc3c2-c2cccc(OCCCN3CCCCC3)c2)cc1 [Example 5]	–	–	–	–	–	–	–	–	–	–	–	–	–	0.2
Oc1ccc(-c2sc3cc(O)ccc3c2-c2cccc(OCCCCN3CCCCC3)c2)cc1 [Example 6, 2-(4--Hydroxyphenyl)-3-[3-(1-piperidinyl)butoxy]phenyl]-6-hydroxybenzo[b]thiophene hydrochloride]	–	–	–	–	–	–	–	–	–	–	–	–	–	2

From US5843940A, “Benzothiophene compounds, compositions, and method” (Eli Lilly and Company, priority 1997, dated 1998)
